Experiments:
Conditions in all cases: exposure time: 72 h
E13 [1] = patient-derived glioblastoma stem cells of classical subtype; test: surviving fraction (nuclei count normalised to DMSO); higher = more cells surviving (less toxic)
E21 [2] = patient-derived glioblastoma stem cells of mesenchymal subtype; test: as above
E28 [3] = patient-derived glioblastoma stem cells of classical subtype; test: as above
E31 [4] = patient-derived glioblastoma stem cells of proneural subtype; test: as above
E34 [5] = patient-derived glioblastoma stem cells of proneural subtype; test: as above
E57 [6] = patient-derived glioblastoma stem cells of mesenchymal subtype; test: as above
FT3469 [7] = normal neural stem cell line; test: as above
E13 [8] = test: phenotypic distance (Euclidean, principal components) from DMSO controls (arbitrary units); higher = stronger morphological change
E21 [9] = test: as above
E28 [10] = test: as above
E31 [11] = test: as above
E34 [12] = test: as above
E57 [13] = test: as above
FT3469 [14] = test: as above
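Throughout, for phenotypic distance (Euclidean, principal components) from DMSO controls: cell Painting imaging in 384-well plates, CellProfiler features reduced to at least 20 principal components, Euclidean distance versus same-plate DMSO vehicle wells (0.1% v/v), median over six images per well.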
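Throughout, for surviving fraction (nuclei count normalised to DMSO): nuclei counted by high-content imaging of Hoechst-stained cells in laminin-coated 384-well plates, relative to 0.1% DMSO vehicle wells, with staurosporine as cell-death control.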

CC(=O)OC[C@H]1O[C@@H]([S-])[C@H](OC(C)=O)[C@@H](OC(C)=O)[C@@H]1OC(C)=O.CCP(CC)CC.[Au+] [Auranofin]
surviving fraction (E13 [1]; 4.1 nM): 0.841
surviving fraction (E13 [1]; 12.3 nM): 1.05
surviving fraction (E13 [1]; 37 nM): 1.04
surviving fraction (E13 [1]; 111.1 nM): 1.09
surviving fraction (E13 [1]; 333.3 nM): 0.968
surviving fraction (E13 [1]; 1000 nM): 0.851
surviving fraction (E13 [1]; 3000 nM): 0.227
surviving fraction (E21 [2]; 4.1 nM): 0.997
surviving fraction (E21 [2]; 12.3 nM): 1
surviving fraction (E21 [2]; 37 nM): 1.02
surviving fraction (E21 [2]; 111.1 nM): 0.947
surviving fraction (E21 [2]; 333.3 nM): 0.979
surviving fraction (E21 [2]; 1000 nM): 0.84
surviving fraction (E21 [2]; 3000 nM): 0.255
surviving fraction (E28 [3]; 4.1 nM): 1.1
surviving fraction (E28 [3]; 12.3 nM): 0.95
surviving fraction (E28 [3]; 37 nM): 0.888
surviving fraction (E28 [3]; 111.1 nM): 0.581
surviving fraction (E28 [3]; 333.3 nM): 0.418
surviving fraction (E28 [3]; 1000 nM): 0.177
surviving fraction (E28 [3]; 3000 nM): 0.00427
surviving fraction (E31 [4]; 4.1 nM): 1.17
surviving fraction (E31 [4]; 12.3 nM): 0.911
surviving fraction (E31 [4]; 37 nM): 1.03
surviving fraction (E31 [4]; 111.1 nM): 1.13
surviving fraction (E31 [4]; 333.3 nM): 1.09
surviving fraction (E31 [4]; 1000 nM): 0.723
surviving fraction (E31 [4]; 3000 nM): 0.00651
surviving fraction (E34 [5]; 4.1 nM): 0.913
surviving fraction (E34 [5]; 12.3 nM): 1.08
surviving fraction (E34 [5]; 37 nM): 1.18
surviving fraction (E34 [5]; 111.1 nM): 1.01
surviving fraction (E34 [5]; 333.3 nM): 0.92
surviving fraction (E34 [5]; 1000 nM): 0.993
surviving fraction (E34 [5]; 3000 nM): 0.269
surviving fraction (E57 [6]; 4.1 nM): 0.985
surviving fraction (E57 [6]; 12.3 nM): 0.96
surviving fraction (E57 [6]; 37 nM): 1.12
surviving fraction (E57 [6]; 111.1 nM): 0.993
surviving fraction (E57 [6]; 333.3 nM): 0.966
surviving fraction (E57 [6]; 1000 nM): 0.884
surviving fraction (E57 [6]; 3000 nM): 0.0901
surviving fraction (FT3469 [7]; 4.1 nM): 1.13
surviving fraction (FT3469 [7]; 12.3 nM): 1.02
surviving fraction (FT3469 [7]; 37 nM): 0.955
surviving fraction (FT3469 [7]; 111.1 nM): 0.76
surviving fraction (FT3469 [7]; 333.3 nM): 0.898
surviving fraction (FT3469 [7]; 1000 nM): 0.909
surviving fraction (FT3469 [7]; 3000 nM): 0.0719
phenotypic distance (E13 [8]; 4.1 nM): 0.698
phenotypic distance (E13 [8]; 12.3 nM): 0.74
phenotypic distance (E13 [8]; 37 nM): 0.381
phenotypic distance (E13 [8]; 111.1 nM): 0.629
phenotypic distance (E13 [8]; 333.3 nM): 0.569
phenotypic distance (E13 [8]; 1000 nM): 0.919
phenotypic distance (E13 [8]; 3000 nM): 5.8
phenotypic distance (E21 [9]; 4.1 nM): 0.692
phenotypic distance (E21 [9]; 12.3 nM): 0.512
phenotypic distance (E21 [9]; 37 nM): 1.07
phenotypic distance (E21 [9]; 111.1 nM): 0.632
phenotypic distance (E21 [9]; 333.3 nM): 1.15
phenotypic distance (E21 [9]; 1000 nM): 2.27
phenotypic distance (E21 [9]; 3000 nM): 5.54
phenotypic distance (E28 [10]; 4.1 nM): 1.07
phenotypic distance (E28 [10]; 12.3 nM): 0.679
phenotypic distance (E28 [10]; 37 nM): 0.773
phenotypic distance (E28 [10]; 111.1 nM): 1.25
phenotypic distance (E28 [10]; 333.3 nM): 1.81
phenotypic distance (E28 [10]; 1000 nM): 2.9
phenotypic distance (E28 [10]; 3000 nM): 11.4
phenotypic distance (E31 [11]; 4.1 nM): 1.04
phenotypic distance (E31 [11]; 12.3 nM): 0.586
phenotypic distance (E31 [11]; 37 nM): 0.373
phenotypic distance (E31 [11]; 111.1 nM): 1.33
phenotypic distance (E31 [11]; 333.3 nM): 1.16
phenotypic distance (E31 [11]; 1000 nM): 1.4
phenotypic distance (E31 [11]; 3000 nM): 8.52
phenotypic distance (E34 [12]; 4.1 nM): 0.444
phenotypic distance (E34 [12]; 12.3 nM): 0.588
phenotypic distance (E34 [12]; 37 nM): 1.03
phenotypic distance (E34 [12]; 111.1 nM): 0.434
phenotypic distance (E34 [12]; 333.3 nM): 1.04
phenotypic distance (E34 [12]; 1000 nM): 0.939
phenotypic distance (E34 [12]; 3000 nM): 5.66
phenotypic distance (E57 [13]; 4.1 nM): 0.808
phenotypic distance (E57 [13]; 12.3 nM): 0.759
phenotypic distance (E57 [13]; 37 nM): 0.726
phenotypic distance (E57 [13]; 111.1 nM): 0.677
phenotypic distance (E57 [13]; 333.3 nM): 1.12
phenotypic distance (E57 [13]; 1000 nM): 2.3
phenotypic distance (E57 [13]; 3000 nM): 9.6
phenotypic distance (FT3469 [14]; 4.1 nM): 0.766
phenotypic distance (FT3469 [14]; 12.3 nM): 0.505
phenotypic distance (FT3469 [14]; 37 nM): 0.606
phenotypic distance (FT3469 [14]; 111.1 nM): 1.02
phenotypic distance (FT3469 [14]; 333.3 nM): 0.835
phenotypic distance (FT3469 [14]; 1000 nM): 1.28
phenotypic distance (FT3469 [14]; 3000 nM): 5.55

Reference: the supplement of paper PMC13207355
